ChEMBL document CHEMBL6109138 (J Med Chem, 2025)
≈ marks a conversion by molar mass, not a printed value.

Legend:
U-251 [1] = test: Antitumor activity against human U-251MG cells assessed as lethal concentration incubated for 48 hrs by SRB assay; type: functional; conditions: read-out: LC50 (the source's name)
U-87 MG [2] = test: Antitumor activity against human U-87 MG cells assessed as total growth inhibition incubated for 48 hrs by SRB assay; type: functional, U-87MG ATCC
T98G [3] = test: Growth inhibition of human T98G cells incubated for 48 hrs by SRB assay; type: functional
[4] = Apparent passive permeability across basolateral to apical side in MDCKII-MDR1 cells; type: ADME, cell-based, Canis lupus familiaris; conditions: dog, MDCK-MDR1
[5] = Metabolic stability in human liver microsomes assessed as intrinsic clearance measured per mg protein; type: ADME, Microsome; conditions: read-out: CLH
[6] = Protein binding in mouse plasma assessed as unbound fraction at 0.5 uM; type: ADME, cell-free
[7] = Metabolic stability in mouse liver microsomes assessed as half-life; type: ADME, Microsome
U-87 MG [8] = test: Antitumor activity against human U-87 MG cells assessed as lethal concentration incubated for 48 hrs by SRB assay; type: functional, U-87MG ATCC
[9] = Protein binding in human plasma assessed as unbound fraction at 0.5 uM; type: ADME, cell-free
T98G [10] = test: Antitumor activity against human T98G cells assessed as total growth inhibition incubated for 48 hrs by SRB assay; type: functional
T98G [11] = test: Antitumor activity against human T98G cells assessed as lethal concentration incubated for 48 hrs by SRB assay; type: functional
D(2) dopamine receptor = D(2) dopamine receptor (Homo sapiens, UniProt P14416); test: Displacement of [3H]N-methylspiperone from human D2L receptor extracted from HEK293 cell membrane assessed as inhibition constant incubated for 1 hrs by radioligand competitive binding based scintillation counter analysis; type: cell membranes
D(2) dopamine receptor, sequence (P14416 whole entry): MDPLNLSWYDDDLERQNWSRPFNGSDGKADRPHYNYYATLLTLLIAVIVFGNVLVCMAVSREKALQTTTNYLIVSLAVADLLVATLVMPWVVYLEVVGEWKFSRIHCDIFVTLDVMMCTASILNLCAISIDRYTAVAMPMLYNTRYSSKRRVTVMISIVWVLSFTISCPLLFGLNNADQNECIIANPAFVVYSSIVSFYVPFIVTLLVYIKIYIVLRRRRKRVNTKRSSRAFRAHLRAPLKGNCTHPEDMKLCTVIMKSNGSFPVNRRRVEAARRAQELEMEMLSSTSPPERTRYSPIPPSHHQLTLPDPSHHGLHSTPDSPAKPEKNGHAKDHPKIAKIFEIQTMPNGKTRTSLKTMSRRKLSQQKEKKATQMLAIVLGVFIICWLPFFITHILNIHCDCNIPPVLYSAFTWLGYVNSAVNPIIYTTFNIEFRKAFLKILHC

[12] = Metabolic stability in human liver microsomes assessed as intrinsic clearance measured per gram liver; type: ADME, Microsome
[13] = Metabolic stability in human liver microsomes assessed as half-life; type: ADME, Microsome
U-251 [14] = test: Growth inhibition of human U-251MG cells incubated for 48 hrs by SRB assay; type: functional
[15] = Metabolic stability in mouse liver microsomes assessed as intrinsic clearance measured per mg protein; type: ADME, Microsome; conditions: read-out: CLH
[16] = Apparent passive permeability across apical to basolateral side in MDCKII-MDR1 cells; type: ADME, cell-based, Canis lupus familiaris; conditions: dog, MDCK-MDR1
U-87 MG [17] = test: Growth inhibition of human U-87 MG cells incubated for 48 hrs by SRB assay; type: functional, U-87MG ATCC
[18] = Metabolic stability in mouse liver microsomes assessed as intrinsic clearance measured per gram liver; type: ADME, Microsome
U-251 [19] = test: Antitumor activity against human U-251MG cells assessed as total growth inhibition incubated for 48 hrs by SRB assay; type: functional
[20] = Kinetic solubility of compound pH 7.4; type: physicochemical; conditions: buffer, read-out: Kinetic_solubility
[21] = target: T1, D(4) dopamine receptor (Homo sapiens) (UniProt P21917); test: Partial agonist activity at D4 receptor (unknown origin) assessed as bias factor by beta-arrestin recruitment assay versus Gi activation assay; type: functional; conditions: filed as partial agonist
T1 sequence (whole entry): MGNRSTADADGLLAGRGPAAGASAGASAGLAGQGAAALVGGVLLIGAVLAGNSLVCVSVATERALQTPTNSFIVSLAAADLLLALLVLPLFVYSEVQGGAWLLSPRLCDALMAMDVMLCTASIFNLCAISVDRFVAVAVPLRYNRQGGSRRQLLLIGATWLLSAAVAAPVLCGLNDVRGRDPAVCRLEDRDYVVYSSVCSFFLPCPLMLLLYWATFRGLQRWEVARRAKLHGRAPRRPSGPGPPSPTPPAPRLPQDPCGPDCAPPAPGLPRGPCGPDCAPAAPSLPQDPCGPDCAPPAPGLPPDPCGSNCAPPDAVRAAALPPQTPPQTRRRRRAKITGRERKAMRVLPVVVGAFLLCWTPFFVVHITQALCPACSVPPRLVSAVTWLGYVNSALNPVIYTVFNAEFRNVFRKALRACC

[22] = target: T1, D(4) dopamine receptor (Homo sapiens); test: Partial agonist activity at D4 receptor (unknown origin) assessed as bias factor by Gi activation assay versus beta-arrestin recruitment assay; type: functional; conditions: filed as partial agonist

| SMILES | CC50 (U-251 [1]) | TGI (U-87 MG [2]) | GI50 (T98G [3]) | TGI (T98G [10]) | Ki (D(2) dopamine receptor) | GI50 (U-251 [14]) | GI50 (U-87 MG [17]) | TGI (U-251 [19]) | further results |
| --- | --- | --- | --- | --- | --- | --- | --- | --- | --- |
| O=C1CCc2ccccc2N1CCCN1CCN(c2ccc3ccccc3c2)CC1 | 201 µM | 55.2 µM | 20 µM | 42.1 µM | 6.17 µM | 26.5 µM | 25.7 µM | 63.2 µM | Papp B→A [4]: 2.06 ×10⁻⁶ cm/s; microsomal CLint [5]: 73.8 µL/min/mg; fraction unbound at 0.5 µM [6]: 0.71; half-life [7]: 6.86 min; LC50 (U-87 MG [8]): 118 µM; fraction unbound at 0.5 µM [9]: 0.41; LC50 (lethal concentration 50%) (T98G [11]): 96.7 µM; scaled CLint [12]: 2.95 mL/min/g; half-life [13]: 18.8 min; microsomal CLint [15]: 202 µL/min/mg; Papp A→B [16]: 1.77 ×10⁻⁶ cm/s; scaled CLint [18]: 9.09 mL/min/g; solubility kinetic [20]: 163 µM (≈ 65.1 µg/mL) |
| O=C1CCc2ccccc2N1CCCN1CCN(C2CCCCC2)CC1 |  |  |  |  | 25.1 µM |  |  |  |  |
| Cn1nnc2c(C(N)=O)ncn2c1=O [TEMOZOLOMIDE] | > 200 µM | > 200 µM | > 200 µM | > 200 µM |  | > 200 µM | > 200 µM | > 200 µM |  |
| Cc1ccc2nc(CNCCCOc3ccccc3)cc(O)c2c1 |  |  |  |  |  |  |  |  | Activity [21]: 7.4 |
| O=C1CCc2ccccc2N1CCCN1CCN(c2ccc(Cl)cc2)CC1 | 182 µM | 102 µM | 21.9 µM | 66.1 µM |  | 61.6 µM | 42.6 µM | 104 µM | LC50 (U-87 MG [8]): 245 µM; LC50 (lethal concentration 50%) (T98G [11]): 200 µM |
| O=C1CCc2ccccc2N1CCCN1CCN(c2ccc(I)cc2)CC1 |  |  |  |  | 3.24 µM |  |  |  |  |
| O=C1CCc2ccccc2N1CCCN1CCN(c2ccccc2-c2ccccc2)CC1 |  |  |  |  | 0.0759 µM |  |  |  |  |
| O=C1CCc2ccccc2N1CCCN1CCN(c2ccc(F)cc2)CC1 |  |  |  |  | 4.07 µM |  |  |  |  |
| O=C1CCc2ccccc2N1CCCN1CCN(c2ccc(C(F)(F)F)cc2)CC1 |  |  |  |  | 29.5 µM |  |  |  |  |
| O=C1CCc2ccccc2N1CCCN1CCN(c2cccc3ccccc23)CC1 | 78.7 µM | 39.5 µM | 12.2 µM | 32.1 µM | 0.0288 µM | 22.6 µM | 19.5 µM | 36.6 µM | Papp B→A [4]: 3.47 ×10⁻⁶ cm/s; microsomal CLint [5]: 145 µL/min/mg; fraction unbound at 0.5 µM [6]: 0.48; half-life [7]: 4.81 min; LC50 (U-87 MG [8]): 80 µM; fraction unbound at 0.5 µM [9]: 0.23; LC50 (lethal concentration 50%) (T98G [11]): 71 µM; scaled CLint [12]: 5.78 mL/min/g; half-life [13]: 9.58 min; microsomal CLint [15]: 288 µL/min/mg; Papp A→B [16]: 1.84 ×10⁻⁶ cm/s; scaled CLint [18]: 13 mL/min/g; solubility kinetic [20]: 112 µM (≈ 44.7 µg/mL) |
| O=C1CCc2ccccc2N1CCCN1CCN(c2ccc(Br)cc2)CC1 |  |  |  |  | 3.16 µM |  |  |  |  |
| COC(=O)c1ccc(N2CCN(CCCN3C(=O)CCc4ccccc43)CC2)cc1 |  |  |  |  | 46.8 µM |  |  |  |  |
| CC(C)N1C[C@H](NC(=O)N2Cc3ccccc3[C@@H]2C)[C@@H](C)C1 |  |  |  |  |  |  |  |  | Activity [22]: 17 |
